Assay [1] can be described thus: Inhibition of caspase-like activity of beta1 subunit of 20S proteasome in human erythrocytes using Z-LLE-MCA as substrate preincubated with enzyme for 10 mins followed by substrate addition and measured after 3 hrs by fluorescence spectrophotometeric analysis.
Assay [2] in a line: Inhibition of trypsin-like activity of beta2 subunit of 20S proteasome in human erythrocytes using Boc-LRR-MCA as substrate preincubated with enzyme for 10 mins followed by substrate addition and measured after 3 hrs by fluorescence spectrophotometric analysis.

In general, IC50 refers to the midpoint of a concentration-inhibition curve. Low readings indicate greater potency, high ones weaker potency. `C=C1CC[C@H]2C(C)(C)[C@H](O)CC[C@]2(C)[C@H]1C[C@]12O[C@H]1[C@H](O)C(CO)=CC2=O`: the 50% inhibitory concentration (IC50) in assay [1] and in assay [2] was greater than 100 µM each time.
`C=C1CC[C@H]2C(C)(C)[C@H](O)CC[C@]2(C)[C@H]1C[C@]12O[C@H]1C(=O)C(COC(=O)[C@H](O)[C@H](C)O)=CC2=O`: the IC50 is 5.2 µM in assay [1] and 27.9 µM in assay [2].
In the same order, the values of `C=C1CC[C@H]2C(C)(C)[C@H](O)CC[C@]2(C)[C@H]1C[C@]12O[C@H]1[C@H](O)C(COC(=O)[C@H](O)[C@H](C)O)=CC2=O` are 87.3 µM and greater than 100 µM.
Take `C=C1CC[C@H]2C(C)(C)[C@H](O)CC[C@]2(C)[C@H]1C[C@]12O[C@H]1[C@H](O)C(COC(=O)C[C@H](C)O)=CC2=O`: the values for the IC50 in assay [1] and in assay [2] were 30.1 µM and greater than 100 µM, respectively.
In the same order, the values of `C=C1CC[C@H]2C(C)(C)[C@H](O)CC[C@]2(C)[C@H]1C[C@]12O[C@H]1C(=O)C(CO)=CC2=O` are 17.8 µM and 76.1 µM.
Take `C=C1CC[C@H]2C(C)(C)[C@H](O)CC[C@]2(C)[C@H]1C[C@]12O[C@H]1C(=O)C(COC(=O)C[C@H](C)O)=CC2=O`: the results for the half-inhibitory concentration (IC50) in assay [1] and in assay [2] were 3.9 µM and 22.5 µM, respectively.

Values taken from BindingDB's records for doi:10.1016/j.bmc.2019.115161 (Iwate University, 2019).
